Assay results taken from PubChem BioAssay (NCI).
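These data come from cells grown in 96-well plates and exposed to compound for 48 hours at five concentrations. The concentration for 50% growth inhibition is given as GI50. Definition used: TGI = concentration required for complete inhibition of growth.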

Tests used:
Test in all cases: NCI-60 cell line screen, 48 h
[1] = test system: 786-0 renal
[2] = test system: A498 renal
[3] = test system: A549 NSCLC
[4] = test system: ACHN renal
[5] = test system: BT-549 breast
[6] = test system: CAKI-1 renal
[7] = test system: CCRF-CEM leukemia
[8] = test system: COLO 205 colon
[9] = test system: DU-145 prostate
[10] = test system: EKVX NSCLC
[11] = test system: HCC-2998 colon
[12] = test system: HCT-116 colon
[13] = test system: HCT-15 colon
[14] = test system: HL-60(TB) leukemia
[15] = test system: HOP-62 NSCLC
[16] = test system: HOP-92 NSCLC
[17] = test system: HS 578T breast
[18] = test system: HT29 colon
[19] = test system: IGROV1 ovarian
[20] = test system: K-562 leukemia
[21] = test system: KM12 colon
[22] = test system: LOX IMVI melanoma
[23] = test system: M14 melanoma
[24] = test system: MALME-3M melanoma
[25] = test system: MCF7 breast
[26] = test system: MDA-MB-231 breast
[27] = test system: MDA-MB-435
[28] = test system: MOLT-4 leukemia
[29] = test system: NCI-H226 lung
[30] = test system: NCI-H23 lung
[31] = test system: NCI-H460 lung
[32] = test system: NCI-H522 lung
[33] = test system: NCI/ADR-RES ovarian
[34] = test system: OVCAR-3 ovarian
[35] = test system: OVCAR-4 ovarian
[36] = test system: OVCAR-5 ovarian
[37] = test system: OVCAR-8 ovarian
[38] = test system: PC-3 prostate
[39] = test system: RPMI-8226 leukemia
[40] = test system: RXF 393 renal
[41] = test system: SF-268 CNS
[42] = test system: SF-295 CNS
[43] = test system: SF-539 CNS
[44] = test system: SK-MEL-2 melanoma
[45] = test system: SK-MEL-28 melanoma
[46] = test system: SK-MEL-5 melanoma
[47] = test system: SK-OV-3 ovarian
[48] = test system: SN12C renal
[49] = test system: SNB-19 CNS
[50] = test system: SNB-75 CNS
[51] = test system: SR leukemia
[52] = test system: SW-620 colon
[53] = test system: T-47D breast
[54] = test system: TK-10 renal
[55] = test system: U251 CNS
[56] = test system: UACC-257 melanoma
[57] = test system: UACC-62 melanoma
[58] = test system: UO-31 renal
[59] = test system: MDA-N

SMILES: COc1cc2c(cc1OC)[C@@H]1C(=O)c3ccc4c(c3O[C@@H]1CO2)C[C@H](C(C)C)O4
- GI50 [1]: 5.6 µM
- TGI [1]: > 79.8 µM
- GI50 [2]: 0.661 µM
- TGI [2]: > 31 µM
- GI50 [3]: 0.759 µM
- TGI [3]: > 57.8 µM
- GI50 [4]: 3.13 µM
- TGI [4]: > 46.4 µM
- GI50 [5]: 0.279 µM
- TGI [5]: 20.8 µM
- GI50 [6]: 4.41 µM
- TGI [6]: > 47.4 µM
- GI50 [7]: 5.41 µM
- TGI [7]: > 100 µM
- GI50 [8]: 6.19 µM
- TGI [8]: 20.8 µM
- GI50 [9]: 14.5 µM
- TGI [9]: > 100 µM
- GI50 [10]: 0.239 µM
- TGI [10]: > 48.2 µM
- GI50 [11]: 4.09 µM
- TGI [11]: > 61.6 µM
- GI50 [12]: 0.0435 µM
- TGI [12]: > 37.8 µM
- GI50 [13]: 9.26 µM
- TGI [13]: > 71 µM
- GI50 [14]: 1.51 µM
- TGI [14]: > 23.8 µM
- GI50 [15]: 9.23 µM
- TGI [15]: > 60.6 µM
- GI50 [16]: 2.04 µM
- TGI [16]: 22.3 µM
- GI50 [17]: 8.15 µM
- TGI [17]: > 46.6 µM
- GI50 [18]: 15.4 µM
- TGI [18]: > 58.6 µM
- GI50 [19]: 14.2 µM
- TGI [19]: > 85.5 µM
- GI50 [20]: 0.521 µM
- TGI [20]: > 41.4 µM
- GI50 [21]: 5.31 µM
- TGI [21]: 26.1 µM
- GI50 [22]: 0.264 µM
- GI50 [23]: 7.86 µM
- TGI [23]: > 59.4 µM
- GI50 [24]: 5.56 µM
- TGI [24]: 53.2 µM
- GI50 [25]: 2.66 µM
- TGI [25]: > 52.2 µM
- GI50 [26]: 21.6 µM
- TGI [26]: > 100 µM
- GI50 [27]: 4.06 µM
- TGI [27]: > 36.7 µM
- GI50 [28]: 6.81 µM
- TGI [28]: > 69.2 µM
- GI50 [29]: 8.89 µM
- TGI [29]: > 100 µM
- GI50 [30]: 0.0416 µM
- TGI [30]: > 38 µM
- GI50 [31]: 4.33 µM
- TGI [31]: 45.8 µM
- GI50 [32]: 0.961 µM
- GI50 [33]: 0.248 µM
- TGI [33]: > 29.1 µM
- GI50 [34]: 7.81 µM
- TGI [34]: > 41.1 µM
- GI50 [35]: 0.795 µM
- TGI [35]: > 100 µM
- GI50 [36]: 29.1 µM
- TGI [36]: > 100 µM
- GI50 [37]: 3.96 µM
- TGI [37]: > 69.9 µM
- GI50 [38]: 1.98 µM
- TGI [38]: > 30.5 µM
- GI50 [39]: 0.0152 µM
- TGI [39]: 9.08 µM
- GI50 [40]: 16.4 µM
- TGI [40]: > 76.9 µM
- GI50 [41]: 11.7 µM
- TGI [41]: > 62.2 µM
- GI50 [42]: 0.294 µM
- GI50 [43]: 15 µM
- TGI [43]: > 53.4 µM
- GI50 [44]: 18.5 µM
- TGI [44]: 57 µM
- GI50 [45]: 15.4 µM
- TGI [45]: > 58.2 µM
- GI50 [46]: 0.0375 µM
- TGI [46]: 12.9 µM
- GI50 [47]: 14.4 µM
- TGI [47]: > 81.8 µM
- GI50 [48]: 10.6 µM
- TGI [48]: > 76.8 µM
- GI50 [49]: 9.74 µM
- TGI [49]: > 78.1 µM
- GI50 [50]: 4.39 µM
- TGI [50]: 23.8 µM
- GI50 [51]: 1.42 µM
- TGI [51]: > 23.6 µM
- GI50 [52]: 9.05 µM
- TGI [52]: > 46.7 µM
- GI50 [53]: 0.175 µM
- TGI [53]: > 60.6 µM
- GI50 [54]: 5.37 µM
- TGI [54]: > 49 µM
- GI50 [55]: 4.57 µM
- TGI [55]: > 38.2 µM
- GI50 [56]: 4.19 µM
- TGI [56]: > 57.7 µM
- GI50 [57]: 9.24 µM
- TGI [57]: > 100 µM
- GI50 [58]: 3.75 µM
- TGI [58]: 97.9 µM

SMILES: c1ccc(CSC(SCc2ccccc2)c2cccc3ccccc23)cc1
- TGI [2]: > 10 µM
- TGI [3]: > 10 µM
- TGI [4]: > 10 µM
- TGI [6]: > 10 µM
- TGI [7]: > 10 µM
- TGI [8]: > 10 µM
- TGI [9]: > 10 µM
- TGI [10]: > 10 µM
- TGI [11]: > 10 µM
- TGI [12]: > 10 µM
- TGI [13]: > 10 µM
- TGI [14]: > 10 µM
- TGI [15]: > 10 µM
- TGI [17]: > 10 µM
- TGI [18]: > 10 µM
- TGI [19]: > 10 µM
- TGI [20]: > 10 µM
- TGI [21]: > 10 µM
- TGI [23]: > 10 µM
- TGI [24]: > 10 µM
- TGI [25]: > 10 µM
- TGI [26]: > 10 µM
- TGI [27]: > 10 µM
- TGI [59]: > 10 µM
- TGI [28]: > 10 µM
- TGI [29]: > 10 µM
- TGI [30]: > 10 µM
- TGI [31]: > 10 µM
- TGI [32]: > 10 µM
- TGI [33]: > 10 µM
- TGI [35]: > 10 µM
- TGI [36]: > 10 µM
- TGI [37]: > 10 µM
- TGI [38]: > 10 µM
- TGI [39]: > 10 µM
- TGI [40]: > 10 µM
- TGI [41]: > 10 µM
- TGI [42]: > 10 µM
- TGI [43]: > 10 µM
- TGI [44]: > 10 µM
- TGI [45]: > 10 µM
- TGI [46]: > 10 µM
- TGI [47]: > 10 µM
- TGI [48]: > 10 µM
- TGI [49]: > 10 µM
- TGI [50]: > 10 µM
- TGI [51]: > 10 µM
- TGI [52]: > 10 µM
- TGI [53]: > 10 µM
- TGI [54]: > 10 µM
- TGI [55]: > 10 µM
- TGI [57]: > 10 µM
- TGI [58]: > 10 µM

SMILES: O=c1c2ccccc2n2c(-c3ccccc3O)nnc2n1-c1ccccc1
- TGI [1]: > 100 µM
- TGI [2]: > 100 µM
- TGI [3]: > 100 µM
- TGI [4]: > 100 µM
- TGI [6]: > 100 µM
- TGI [7]: > 100 µM
- TGI [8]: > 100 µM
- TGI [9]: > 100 µM
- TGI [10]: > 100 µM
- TGI [11]: > 100 µM
- TGI [12]: > 100 µM
- TGI [13]: > 100 µM
- TGI [14]: > 100 µM
- TGI [15]: > 100 µM
- TGI [16]: > 100 µM
- TGI [18]: > 100 µM
- TGI [19]: > 100 µM
- TGI [20]: > 100 µM
- TGI [21]: > 100 µM
- TGI [22]: > 100 µM
- TGI [23]: > 100 µM
- TGI [24]: > 100 µM
- TGI [25]: > 100 µM
- TGI [26]: > 100 µM
- TGI [27]: > 100 µM
- TGI [59]: > 100 µM
- TGI [28]: > 100 µM
- TGI [29]: > 100 µM
- TGI [30]: > 100 µM
- TGI [31]: > 100 µM
- TGI [32]: > 100 µM
- TGI [33]: > 100 µM
- TGI [34]: > 100 µM
- TGI [35]: > 100 µM
- TGI [36]: > 100 µM
- TGI [37]: > 100 µM
- TGI [38]: > 100 µM
- TGI [40]: > 100 µM
- TGI [41]: > 100 µM
- TGI [42]: > 100 µM
- TGI [43]: > 100 µM
- TGI [44]: > 100 µM
- TGI [45]: > 100 µM
- TGI [46]: > 100 µM
- TGI [47]: > 100 µM
- TGI [48]: > 100 µM
- TGI [49]: > 100 µM
- TGI [50]: > 100 µM
- TGI [51]: > 100 µM
- TGI [52]: > 100 µM
- TGI [53]: > 100 µM
- TGI [54]: > 100 µM
- TGI [55]: > 100 µM
- TGI [56]: > 100 µM
- TGI [57]: > 100 µM
- TGI [58]: 5.72 µM
